Measurements published in ChEMBL document CHEMBL4304773, “Nitroimidazole-containing compounds and their antibacterial and antitubercular activities” (2019).
Converted amounts (≈) assume the structure as drawn.

How the values were obtained:
Assay type in all cases: functional
Bacillus subtilis = experiment: Antibacterial activity against Bacillus subtilis
Escherichia coli [1] = experiment: Antibacterial activity against Escherichia coli
Pseudomonas aeruginosa [2] = experiment: Antibacterial activity against Pseudomonas aeruginosa
Staphylococcus aureus [3] = experiment: Antibacterial activity against Staphylococcus aureus
Candida albicans = experiment: Antifungal activity against Candida albicans
Pseudomonas aeruginosa [4] = experiment: Antibacterial activity against Pseudomonas aeruginosa ATCC 27853 after 24 hrs; details: ATCC 27853, 24 h
Enterococcus faecalis = experiment: Antibacterial activity against Enterococcus faecalis after 24 hrs
Staphylococcus aureus [5] = experiment: Antibacterial activity against Staphylococcus aureus ATCC 29213 after 24 hrs; details: ATCC 29213, 24 h
Staphylococcus aureus [6] = experiment: Antibacterial activity against methicillin-resistant Staphylococcus aureus after 24 hrs
Escherichia coli [7] = experiment: Antibacterial activity against Escherichia coli ATCC 25922 after 24 hrs; details: ATCC 25922, 24 h
Pseudomonas aeruginosa [8] = experiment: Antibacterial activity against Pseudomonas aeruginosa after 24 hrs
Klebsiella pneumoniae = experiment: Antibacterial activity against Klebsiella pneumoniae after 24 hrs
Staphylococcus aureus [9] = experiment: Antibacterial activity against Staphylococcus aureus ATCC 25923 after 24 hrs; details: ATCC 25923, 24 h

SMILES	MIC (Bacillus subtilis)	MIC (Escherichia coli [1])	MIC (Pseudomonas aeruginosa [2])	MIC (Staphylococcus aureus [3])	MIC (Candida albicans)	MIC (Pseudomonas aeruginosa [4])	MIC (Enterococcus faecalis)	MIC (Staphylococcus aureus [5])	MIC (Staphylococcus aureus [6])	MIC (Escherichia coli [7])	MIC (Pseudomonas aeruginosa [8])	MIC (Klebsiella pneumoniae)	MIC (Staphylococcus aureus [9])
COc1ccccc1Cc1nnc(Cn2c([N+](=O)[O-])cnc2C)o1	3.12 to 4.56 mg/L (≈ 9.47 to 13.8 µM)	3.12 to 4.56 mg/L (≈ 9.47 to 13.8 µM)	3.12 to 4.56 mg/L (≈ 9.47 to 13.8 µM)	3.12 to 4.56 mg/L	–	–	–	–	–	–	–	–	–
CC(=O)N1N=C(Cn2c([N+](=O)[O-])cnc2C)OC1c1ccc(Cl)cc1 (stereo not drawn)	0.25 to 0.5 mg/L (≈ 0.687 to 1.37 µM)	0.25 to 0.5 mg/L (≈ 0.687 to 1.37 µM)	0.25 to 0.5 mg/L (≈ 0.687 to 1.37 µM)	0.25 to 0.5 mg/L	0.25 to 0.5 mg/L (≈ 0.687 to 1.37 µM)	–	–	–	–	–	–	–	–
CC(=O)N1N=C(Cn2c([N+](=O)[O-])cnc2C)OC1c1ccc(C)cc1 (stereo not drawn)	0.25 to 0.5 mg/L (≈ 0.728 to 1.46 µM)	0.25 to 0.5 mg/L (≈ 0.728 to 1.46 µM)	0.25 to 0.5 mg/L (≈ 0.728 to 1.46 µM)	0.25 to 0.5 mg/L	0.25 to 0.5 mg/L (≈ 0.728 to 1.46 µM)	–	–	–	–	–	–	–	–
COc1ccc(C2OC(Cn3c([N+](=O)[O-])cnc3C)=NN2C(C)=O)cc1 (stereo not drawn)	0.25 to 0.5 mg/L (≈ 0.696 to 1.39 µM)	0.25 to 0.5 mg/L (≈ 0.696 to 1.39 µM)	0.25 to 0.5 mg/L (≈ 0.696 to 1.39 µM)	0.25 to 0.5 mg/L	0.25 to 0.5 mg/L (≈ 0.696 to 1.39 µM)	–	–	–	–	–	–	–	–
COc1ccc(C2(C)OC(Cn3c([N+](=O)[O-])cnc3C)=NN2C(C)=O)cc1 (stereo not drawn)	0.25 to 0.5 mg/L (≈ 0.67 to 1.34 µM)	0.25 to 0.5 mg/L (≈ 0.67 to 1.34 µM)	0.25 to 0.5 mg/L (≈ 0.67 to 1.34 µM)	0.25 to 0.5 mg/L	0.25 to 0.5 mg/L (≈ 0.67 to 1.34 µM)	–	–	–	–	–	–	–	–
CC(=O)N1N=C(Cn2c([N+](=O)[O-])cnc2C)OC1c1ccc2c(c1)OCO2 (stereo not drawn)	0.25 to 0.5 mg/L (≈ 0.67 to 1.34 µM)	0.25 to 0.5 mg/L (≈ 0.67 to 1.34 µM)	0.25 to 0.5 mg/L (≈ 0.67 to 1.34 µM)	0.25 to 0.5 mg/L	0.25 to 0.5 mg/L (≈ 0.67 to 1.34 µM)	–	–	–	–	–	–	–	–
CCCCCCOc1c(OC)cc(/C=C(\C#N)n2cc([N+](=O)[O-])nc2C)c2c1CN1CCc3cc4c(cc3C1C2)OCO4 (stereo not drawn)	–	–	–	–	–	3 to 1020 µM (≈ 1.76 to 598 µg/mL)	3 to 1020 µM (≈ 1.76 to 598 µg/mL)	3 to 1020 µM (≈ 1.76 to 598 µg/mL)	3 to 1020 µM (≈ 1.76 to 598 µg/mL)	3 to 1020 µM (≈ 1.76 to 598 µg/mL)	3 to 1020 µM (≈ 1.76 to 598 µg/mL)	3 to 1020 µM (≈ 1.76 to 598 µg/mL)	3 to 1020 µM (≈ 1.76 to 598 µg/mL)
CC(=O)N1N=C(Cn2c([N+](=O)[O-])cnc2C)OC1c1ccc([N+](=O)[O-])cc1 (stereo not drawn)	0.25 to 0.5 mg/L (≈ 0.668 to 1.34 µM)	0.25 to 0.5 mg/L (≈ 0.668 to 1.34 µM)	0.25 to 0.5 mg/L (≈ 0.668 to 1.34 µM)	0.25 to 0.5 mg/L	0.25 to 0.5 mg/L (≈ 0.668 to 1.34 µM)	–	–	–	–	–	–	–	–
CCCCCCCCOc1c(OC)cc(/C=C(\C#N)n2cc([N+](=O)[O-])nc2C)c2c1CN1CCc3cc4c(cc3C1C2)OCO4 (stereo not drawn)	–	–	–	–	–	3 to 1020 µM (≈ 1.84 to 627 µg/mL)	3 to 1020 µM (≈ 1.84 to 627 µg/mL)	3 to 1020 µM (≈ 1.84 to 627 µg/mL)	3 to 1020 µM (≈ 1.84 to 627 µg/mL)	3 to 1020 µM (≈ 1.84 to 627 µg/mL)	3 to 1020 µM (≈ 1.84 to 627 µg/mL)	3 to 1020 µM (≈ 1.84 to 627 µg/mL)	3 to 1020 µM (≈ 1.84 to 627 µg/mL)
C=CCOc1c(OC)cc(/C=C(\C#N)n2cc([N+](=O)[O-])nc2C)c2c1CN1CCc3cc4c(cc3C1C2)OCO4 (stereo not drawn)	–	–	–	–	–	3 to 1020 µM (≈ 1.62 to 553 µg/mL)	3 to 1020 µM (≈ 1.62 to 553 µg/mL)	3 to 1020 µM (≈ 1.62 to 553 µg/mL)	3 to 1020 µM (≈ 1.62 to 553 µg/mL)	3 to 1020 µM (≈ 1.62 to 553 µg/mL)	3 to 1020 µM (≈ 1.62 to 553 µg/mL)	3 to 1020 µM (≈ 1.62 to 553 µg/mL)	3 to 1020 µM (≈ 1.62 to 553 µg/mL)
COc1cc(/C=C(\C#N)n2cc([N+](=O)[O-])nc2C)c2c(c1OCc1ccc(Cl)cc1)CN1CCc3cc4c(cc3C1C2)OCO4 (stereo not drawn)	–	–	–	–	–	3 to 1020 µM (≈ 1.88 to 639 µg/mL)	3 to 1020 µM (≈ 1.88 to 639 µg/mL)	3 to 1020 µM (≈ 1.88 to 639 µg/mL)	3 to 1020 µM (≈ 1.88 to 639 µg/mL)	3 to 1020 µM (≈ 1.88 to 639 µg/mL)	3 to 1020 µM (≈ 1.88 to 639 µg/mL)	3 to 1020 µM (≈ 1.88 to 639 µg/mL)	3 to 1020 µM (≈ 1.88 to 639 µg/mL)
COc1cc(/C=C(\C#N)n2cc([N+](=O)[O-])nc2C)c2c(c1OCc1ccccc1Cl)CN1CCc3cc4c(cc3C1C2)OCO4 (stereo not drawn)	–	–	–	–	–	3 to 1020 µM (≈ 1.88 to 639 µg/mL)	3 to 1020 µM (≈ 1.88 to 639 µg/mL)	3 to 1020 µM (≈ 1.88 to 639 µg/mL)	3 to 1020 µM (≈ 1.88 to 639 µg/mL)	3 to 1020 µM (≈ 1.88 to 639 µg/mL)	3 to 1020 µM (≈ 1.88 to 639 µg/mL)	3 to 1020 µM (≈ 1.88 to 639 µg/mL)	3 to 1020 µM (≈ 1.88 to 639 µg/mL)
COc1cc(/C=C(\C#N)n2cc([N+](=O)[O-])nc2C)c2c(c1OCC(C)=O)CN1CCc3cc4c(cc3C1C2)OCO4 (stereo not drawn)	–	–	–	–	–	3 to 1020 µM (≈ 1.67 to 569 µg/mL)	3 to 1020 µM (≈ 1.67 to 569 µg/mL)	3 to 1020 µM (≈ 1.67 to 569 µg/mL)	3 to 1020 µM (≈ 1.67 to 569 µg/mL)	3 to 1020 µM (≈ 1.67 to 569 µg/mL)	3 to 1020 µM (≈ 1.67 to 569 µg/mL)	3 to 1020 µM (≈ 1.67 to 569 µg/mL)	3 to 1020 µM (≈ 1.67 to 569 µg/mL)
Cc1nc([N+](=O)[O-])cn1Cc1nn(CN2CCNCC2)c(=S)o1	–	–	–	184 µM	–	–	–	–	–	–	–	–	–
